Like-named read-outs stand apart in the source and are kept apart here.
Key:
Format in all cases: in vivo
11β-HSD type 1 = assay: Inhibition of conversion of prednisone to prednisolone after single administration to cynomolgus monkeys; details: for inhibition of the prednisolone/prednisone ratio in animals that respond favorably: responders only; for inhibition of plasma prednisolone/prednisone ratio of AUC (30 minutes to 4 hours): prednisone 10 mg/kg 2 h later
Description: The protocol used is described by Bhat et al. (J. Pharmacol. Exp. Ther. 324, 299-305, 2008).
(§1) Briefly, the study is carried out in naive adult male cynomolgus monkeys fasted overnight. The 11β-HSD type 1 inhibitor or its vehicle (0.5% methylcellulose in water) is administered via nasogastric intubation. Two hours later, a challenge with orally administered prednisone (10 mg/kg) is performed and blood samples are taken regularly for 24 hours. These samples are centrifuged to obtain plasma and immediately frozen at −70° C. until bioanalysis. Plasma levels of prednisone, prednisolone and 11β-HSD type 1 inhibitors are measured by LC-MS/MS analytical methods.
(§2) The study is carried out over a period of 10 weeks. Profiles of plasma concentration as a function of time and areas under the curve are calculated using the trapezoidal method for all parameters.
The effect of Compound 1 is evaluated at three doses: 1.25, 5 and 20 mg/kg.
The effect of Compound 1K is evaluated at three doses: 20, 40 and 80 mg/kg. The protocol is quite similar to the preceding, except that only 5 blood samples were taken per monkey rather than 7. Compound 1K was also evaluated over a period of 10 weeks.
The 11β-HSD type 1 activity-dependent conversion of prednisone to prednisolone was evaluated. Compound 2K inhibits roughly 50% this activity at a dose of 20 mg/kg (FIG. 2A). FIG. 2 represents the effects of Compound 2K, at the three doses tested, on plasma prednisolone/prednisone ratio calculated with the area under the curve between 30 minutes and 4 hours (panel A) and on plasma exposure during the 6-hour experimental period (panel B); the results obtained with Compound 1K at a dose of 5 mg/kg are compared in the two panels.

[1] = Clinical and behavioral signs in cynomolgus monkeys during the prednisone challenge studies; details: study no. 1, 1.25, 5 and 20 mg/kg
Description: as §1, §2

human 11β-HSD type 1 [2] = target: T1, human 11β-HSD type 1 (Homo sapiens, UniProt P28845); assay: Bioactivity of inguinal white adipose tissue after single oral administration in C57BL/6N mice, read as inhibition of human 11β-HSD type 1 (SPA); details: mouse inguinal white adipose tissue extract
Description: Four hours post-administration, the mice are euthanized and inguinal white adipose tissue is taken and frozen at −70° C. until the day of bioanalyses. The white adipose tissue is homogenized in liquid nitrogen and then treated with acetonitrile (1 ml of distilled water for 4 ml of acetonitrile and 200 mg of inguinal white adipose tissue) to extract soluble substances. The acetonitrile fraction is collected, then dried, and the residue is dissolved in 1 ml of DMSO for 300 mg of white adipose tissue.
Compounds tested: the same as those of Example 2.

[3] = Plasma level by LC/MS after single oral administration in C57BL/6N mice; details: parent molecule by LC/MS
Description: (§3) The evaluation is made in on 4- to 6-week-old non-fasted male C57BL/6N strain mice. The compounds to be tested or the vehicle (0.5% methylcellulose in water, at 10 ml/kg) are administered orally; n=3 mice per treatment.
(§4) Blood samples are collected 1 h and 4 h after administration; the tubes are centrifuged to obtain plasma and frozen at −70° C. until bioanalysis. Plasma bioactivity (2% final volume) is analyzed by using the inhibition of human 11β-HSD type 1 as a detection system (SPA technology) for each compound at each dose tested. Percent inhibition (versus mice treated with carrier) is calculated for each dose.
Compound 1 is detected in the plasma of the treated mice and inhibits 11β-HSD type 1 as of 0.63 mg/kg. LC/MS analyses of plasma samples from the animals treated with Compound 1K show a much higher plasma level of the parent molecule than that found for Compound 1.

human 11β-HSD type 1 [4] = target: T1, human 11β-HSD type 1; assay: Plasma bioactivity after single oral administration in C57BL/6N mice, read as inhibition of human 11β-HSD type 1 (SPA); details: for inhibition at 2.5 mg/kg: 2.5 mg/kg oral; for inhibition at 2.5 mg/kg / inhibition at 10 mg/kg: table with plasma levels; for inhibition at 10 mg/kg: 10 mg/kg oral
Description: as §3, §4

[5] = mice, 1 h, read-out: Plasma 1 h % inh.
[6] = mice, 4 h, read-out: Plasma 4 h % inh.
[7] = mouse plasma (2% final volume), 1 h after 0.63 mg/kg oral
[8] = mouse plasma, 1 h after 2.5 mg/kg oral
[9] = mouse plasma, 1 h after 10 mg/kg oral
[10] = mouse plasma, 1 h after 40 mg/kg oral
[11] = mouse plasma, 4 h after 0.63 mg/kg oral
[12] = mouse plasma, 4 h after 2.5 mg/kg oral
[13] = mouse plasma, 4 h after 10 mg/kg oral
[14] = mouse plasma, 4 h after 40 mg/kg oral

T1 sequence (P28845 whole entry): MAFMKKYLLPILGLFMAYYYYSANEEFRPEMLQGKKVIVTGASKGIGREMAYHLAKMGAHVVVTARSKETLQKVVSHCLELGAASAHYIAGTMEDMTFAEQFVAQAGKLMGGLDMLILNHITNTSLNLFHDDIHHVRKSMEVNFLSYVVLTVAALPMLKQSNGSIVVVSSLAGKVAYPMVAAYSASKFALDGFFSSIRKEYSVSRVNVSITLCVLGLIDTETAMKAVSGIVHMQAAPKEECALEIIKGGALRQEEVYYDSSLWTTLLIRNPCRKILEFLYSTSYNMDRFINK

SMILES	inhibition of plasma prednisolone/prednisone ratio of AUC (30 minutes to 4 hours) (11β-HSD type 1; 20 mg/kg)	% inhibition after 4 h (human 11β-HSD type 1 [2]; 4 h after 0.63 mg/kg oral)	% inhibition after 4 h (human 11β-HSD type 1 [2]; 4 h after 2.5 mg/kg oral)	% inhibition after 4 h (human 11β-HSD type 1 [2]; 4 h after 10 mg/kg oral)	% inhibition after 4 h (human 11β-HSD type 1 [2]; 4 h after 40 mg/kg oral)	% inhibition at 1 h (human 11β-HSD type 1 [4]; [7])	% inhibition at 1 h (human 11β-HSD type 1 [4]; [8])	% inhibition at 1 h (human 11β-HSD type 1 [4]; [9])	% inhibition at 1 h (human 11β-HSD type 1 [4]; [10])	% inhibition at 4 h (human 11β-HSD type 1 [4]; [11])	% inhibition at 4 h (human 11β-HSD type 1 [4]; [12])	% inhibition at 4 h (human 11β-HSD type 1 [4]; [13])	% inhibition at 4 h (human 11β-HSD type 1 [4]; [14])	other results
CN1C(C(=O)c2ccc3ccccc3c2)=C(O)c2ccccc2S1(=O)=O [Compound 1, (4-hydroxy-2-methyl-1,1-dioxido-2H-benzo[e][1,2]thiazin-3-yl)(naphthalen-2-yl)methanone]	34%	8%	36%	63%	79%	40%	64%	81%	93%	31%	60%	81%	94%	animals that respond favorably to the treatment (11β-HSD type 1; 5 mg/kg): 60%; inhibition of the prednisolone/prednisone ratio in animals that respond favorably (11β-HSD type 1; 5 mg/kg): 28%; animals that respond favorably to the treatment (11β-HSD type 1; 20 mg/kg): 80%; inhibition of the prednisolone/prednisone ratio in animals that respond favorably (11β-HSD type 1; 20 mg/kg): 46%; dose as of which inhibition of 11β-HSD type 1 is significant and dose-dependent (11β-HSD type 1; doses 1.25, 5 and 20 mg/kg): 5 mg/kg; clinical or behavioral sign [1]: No particular clinical or behavioral sign; Plasma 1 h ([3]; 2.5 mg/kg oral): 2598 ± 1478 ng/mL; Plasma 4 h ([3]; 2.5 mg/kg oral): 2205 ± 1250 ng/mL; Plasma 1 h ([3]; 10 mg/kg oral): 3675 ± 1781 ng/mL; Plasma 4 h ([3]; 10 mg/kg oral): 3823 ± 2011 ng/mL; inhibition at 2.5 mg/kg (human 11β-HSD type 1 [4]; [5]): 65 ± 8%; inhibition at 2.5 mg/kg (human 11β-HSD type 1 [4]; [6]): 58 ± 5%; inhibition at 10 mg/kg (human 11β-HSD type 1 [4]; [5]): 75 ± 8%; inhibition at 10 mg/kg (human 11β-HSD type 1 [4]; [6]): 73 ± 4%; dose as of which plasma of treated mice inhibits 11β-HSD type 1 (human 11β-HSD type 1 [4]; mice, single oral administration): 0.63 mg/kg
C1CCc2nnc(C34CC5CC(CC(C5)C3)C4)n2CC1 [Compound 3, 3-(1-adamantyl)-6,7,8,9-tetrahydro-5H-[1,2,4]triazolo[4,3-a]azepine, reference compound]	–	–	–	15%	8%	–	–	93%	98%	–	–	22%	68%	% inhibition after 4 h (human 11β-HSD type 1 [2]; 4 h after 80 mg/kg oral): 13%; % inhibition at 1 h (human 11β-HSD type 1 [4]; mouse plasma, 1 h after 80 mg/kg oral): 101%; % inhibition at 4 h (human 11β-HSD type 1 [4]; mouse plasma, 4 h after 80 mg/kg oral): 94%
CN1C(C(=O)c2ccc(-c3ccc(C#N)cc3)cc2)=C([O-])c2ccccc2S1(=O)=O.[K+] [Compound 2K, potassium 3-(4′-cyanobiphenyl-4-carbonyl)-2-methyl-2H-benzo[e][1,2]thiazin-4-olate 1,1-dioxide, reference compound]	roughly 50%	17%	46%	72%	–	26%	63%	84%	–	29%	65%	86%	–	activity on conversion of prednisone to prednisolone (11β-HSD type 1; doses below 20 mg/kg (1.25, 5 mg/kg)): inactive

— patent publication US20180140609A1, “USE OF (4-HYDROXY-2-METHYL-1,1-DIOXIDO-2H-BENZO[E][1,2]THIAZINE-3-YL)(NAPHTHALENE-2-YL) METHANONE IN THE PREVENTION AND/OR TREATMENT OF NON-ALCOHOLIC STEATOHEPATITIS” (PIERRE FABRE MEDICAMENT, priority 2015, published 2018)
